System: malignant primary or metastatic tumors involving the CNS
Assay: Clinical and radiological tumor response (Macdonald criteria), immune modulating regimen in addition to standard chemoradiotherapy
Assay type: in vivo, human
Conditions: CNS melanoma subject, ipilimumab with radiotherapy, before the regimen
Method: Subjects used in the larger study were diagnosed with different primary or metastatic tumors involving the central nervous system: glioblastoma, carcinoma, or lymphoma. The oral immunomodulation regimen was offered to subjects in addition to standard therapy.
Samples were collected at scheduled clinic visits. […] Radiology studies were performed as part of standard evaluation.

Substance: ipilimumab
- Disease course on prior therapy: progressed
